pIC50: −log10 of the molar value.
What follows are compounds tested against T1, Squalene synthase (Rattus norvegicus, UniProt Q02769) (assay: In vitro for inhibitory activity against Squalene synthase in rat).
T1 sequence (Q02769 whole entry): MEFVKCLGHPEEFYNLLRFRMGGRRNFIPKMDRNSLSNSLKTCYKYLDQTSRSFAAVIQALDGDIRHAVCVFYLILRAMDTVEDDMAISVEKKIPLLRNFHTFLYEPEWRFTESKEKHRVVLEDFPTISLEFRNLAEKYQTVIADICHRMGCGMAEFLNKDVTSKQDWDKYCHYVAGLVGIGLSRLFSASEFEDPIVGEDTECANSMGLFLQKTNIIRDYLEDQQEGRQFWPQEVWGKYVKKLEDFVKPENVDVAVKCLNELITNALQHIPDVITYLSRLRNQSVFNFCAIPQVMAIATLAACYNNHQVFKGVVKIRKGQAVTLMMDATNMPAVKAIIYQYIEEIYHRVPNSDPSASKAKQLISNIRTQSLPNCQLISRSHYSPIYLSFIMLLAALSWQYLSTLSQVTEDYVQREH

Point of comparison: `C=C(CC[C@]12O[C@H](c3nc(C)no3)[C@@](O)(C(=O)O)[C@](C(=O)O)(O1)[C@H](OC(=O)/C=C/[C@@H](C)C[C@@H](C)CC)[C@H]2O)[C@@H](C(C)=O)[C@H](C)Cc1ccccc1`, pIC50 7.14. Against it:
- C=C(CC[C@]12O[C@H](c3nnn[nH]3)[C@@](O)(C(=O)O)[C@](C(=O)O)(O1)[C@H](O)[C@H]2O)[C@@H](C(C)=O)[C@H](C)Cc1ccccc1 — 0.46 log units higher, 7.60
- C=C(CC[C@]12O[C@H](c3nnc(NC)o3)[C@@](O)(C(=O)O)[C@](C(=O)O)(O1)[C@H](OC(=O)/C=C/[C@@H](C)C[C@@H](C)CC)[C@H]2O)[C@@H](C(C)=O)[C@H](C)Cc1ccccc1 — 0.86 log units higher, 8.00
- C=C(CC[C@]12O[C@H](c3csc(C)n3)[C@@](O)(C(=O)O)[C@](C(=O)O)(O1)[C@H](O)[C@H]2O)[C@@H](C(C)=O)[C@H](C)Cc1ccccc1 — 1.60 log units lower, 5.54
- C=C(CC[C@]12O[C@H](c3nnn(C)n3)[C@@](O)(C(=O)O)[C@](C(=O)O)(O1)[C@H](OC(=O)/C=C/[C@@H](C)C[C@@H](C)CC)[C@H]2O)[C@@H](C(C)=O)[C@H](C)Cc1ccccc1 — 0.23 log units higher, 7.37
- C=C(CC[C@]12O[C@H](c3cscn3)[C@@](O)(C(=O)O)[C@](C(=O)O)(O1)[C@H](O)[C@H]2O)[C@@H](C(C)=O)[C@H](C)Cc1ccccc1 — 0.84 log units lower, 6.30
- C=C(CC[C@]12O[C@H](c3nnnn3C)[C@@](O)(C(=O)O)[C@](C(=O)O)(O1)[C@H](OC(=O)/C=C/[C@@H](C)C[C@@H](C)CC)[C@H]2O)[C@@H](C(C)=O)[C@H](C)Cc1ccccc1 — within 0.2 log units, 7.24
- C=C(CC[C@]12O[C@H](c3csc(N)n3)[C@@](O)(C(=O)O)[C@](C(=O)O)(O1)[C@H](OC(=O)/C=C/[C@@H](C)C[C@@H](C)CC)[C@H]2O)[C@@H](C(C)=O)[C@H](C)Cc1ccccc1 — within 0.2 log units, 7.20
- C=C(CC[C@]12O[C@H](c3n[nH]c(=S)n3C)[C@@](O)(C(=O)O)[C@](C(=O)O)(O1)[C@H](O)[C@H]2O)[C@@H](C(C)=O)[C@H](C)Cc1ccccc1 — 1.43 log units lower, 5.71
- C=C(CC[C@]12O[C@H](c3nnc(S)n3C)[C@@](O)(C(=O)O)[C@](C(=O)O)(O1)[C@H](OC(=O)/C=C/[C@@H](C)C[C@@H](C)CC)[C@H]2O)[C@@H](C(C)=O)[C@H](C)Cc1ccccc1 — 0.38 log units lower, 6.76
- C=C(CC[C@]12O[C@H](c3nc(C)no3)[C@@](O)(C(=O)O)[C@](C(=O)O)(O1)[C@H](O)[C@H]2O)[C@@H](C(C)=O)[C@H](C)Cc1ccccc1 — 0.63 log units lower, 6.51
- C=C(CC[C@]12O[C@H](c3nnc(NC)o3)[C@@](O)(C(=O)O)[C@](C(=O)O)(O1)[C@H](O)[C@H]2O)[C@@H](C(C)=O)[C@H](C)Cc1ccccc1 — 0.31 log units lower, 6.83
- C=C(CC[C@]12O[C@H](c3nnc(C)[nH]3)[C@@](O)(C(=O)O)[C@](C(=O)O)(O1)[C@H](O)[C@H]2O)[C@@H](C(C)=O)[C@H](C)Cc1ccccc1 — 0.63 log units lower, 6.51
- C=C(CC[C@]12O[C@H](C(=O)OC)[C@@](O)(C(=O)O)[C@](C(=O)O)(O1)[C@H](O)[C@H]2O)[C@@H](C(C)=O)[C@H](C)Cc1ccccc1 — 0.48 log units lower, 6.66
- C=C(CC[C@]12O[C@H](c3csc(C)n3)[C@@](O)(C(=O)O)[C@](C(=O)O)(O1)[C@H](OC(=O)/C=C/[C@@H](C)C[C@@H](C)CC)[C@H]2O)[C@@H](C(C)=O)[C@H](C)Cc1ccccc1 — 0.69 log units lower, 6.45
- C=C(CC[C@]12O[C@H](c3nnn[nH]3)[C@@](O)(C(=O)O)[C@](C(=O)O)(O1)[C@H](OC(=O)/C=C/[C@@H](C)C[C@@H](C)CC)[C@H]2O)[C@@H](C(C)=O)[C@H](C)Cc1ccccc1 — 1.26 log units higher, 8.40
- C=C(CC[C@]12O[C@H](c3cnc[nH]3)[C@@](O)(C(=O)O)[C@](C(=O)O)(O1)[C@H](O)[C@H]2O)[C@@H](C(C)=O)[C@H](C)Cc1ccccc1 — 1.03 log units lower, 6.11
- C=C(CC[C@]12O[C@H](c3cscn3)[C@@](O)(C(=O)O)[C@](C(=O)O)(O1)[C@H](OC(=O)/C=C/[C@@H](C)C[C@@H](C)CC)[C@H]2O)[C@@H](C(C)=O)[C@H](C)Cc1ccccc1 — within 0.2 log units, 7.04
- C=C(CC[C@]12O[C@H](c3csc(NC)n3)[C@@](O)(C(=O)O)[C@](C(=O)O)(O1)[C@H](O)[C@H]2O)[C@@H](C(C)=O)[C@H](C)Cc1ccccc1 — 1.21 log units lower, 5.93
- C=C(CC[C@]12O[C@H](c3nnnn3C)[C@@](O)(C(=O)O)[C@](C(=O)O)(O1)[C@H](O)[C@H]2O)[C@@H](C(C)=O)[C@H](C)Cc1ccccc1 — 0.79 log units lower, 6.35
- C=C(CC[C@]12O[C@H](C(=O)OC)[C@@](O)(C(=O)O)[C@](C(=O)O)(O1)[C@H](OC(=O)/C=C/[C@@H](C)C[C@@H](C)CC)[C@H]2O)[C@@H](C(C)=O)[C@H](C)Cc1ccccc1 — 1.01 log units higher, 8.15
- C=C(CC[C@]12O[C@H](c3nnn(C)n3)[C@@](O)(C(=O)O)[C@](C(=O)O)(O1)[C@H](O)[C@H]2O)[C@@H](C(C)=O)[C@H](C)Cc1ccccc1 — 0.33 log units lower, 6.81
- C=C(CC[C@]12O[C@H](c3csc(NC)n3)[C@@](O)(C(=O)O)[C@](C(=O)O)(O1)[C@H](OC(=O)/C=C/[C@@H](C)C[C@@H](C)CC)[C@H]2O)[C@@H](C(C)=O)[C@H](C)Cc1ccccc1 — 0.30 log units lower, 6.84

— ChEMBL document CHEMBL1128537, “The squalestatins: synthesis and biological activity of some C3-modified analogues; replacement of a carboxylic acid or methyl ester with an isoelectronic heterocyclic functionality” (J Med Chem, 1995)
